Results on 1 compound are retold here after patent publication US20030165545A1, “Ophthalmic compositions including oil-in-water emulsions, and methods for making and using same” (Allergan, Inc., priority 2002, published 2003).

The test has as its system Intra Ocular Pressure. The settings on record: about 0.131% in a composition of Example 1. As for the experimental part:
Approximately 0.05 mL of the composition is administered directly to the eye at time 0.

Where two headings read alike, the source gives them in different places.

As for `Brc1c(NC2=NCCN2)ccc2nccnc12` [5-bromo-6-(2-imidozolin-2-ylamino) quinoxaline], the “percent change of Intra Ocular Pressure (mm Hg)” value (shortened to “percent change”) (1 hr after about 0.05 mL to the eye) is listed as −10.4%, the “percent change” value (2 hr after about 0.05 mL to the eye) is on record as −16.0%, the “percent change” value (4 hr after about 0.05 mL to the eye) is recorded as −09.5% and the “percent change” value (6 hr after about 0.05 mL to the eye) was −09.4%.
